In patent US12448400B2, “KRAS G12D modulating compounds” (priority 2023, dated 2025):

Each compound was assayed on GP2D (KRAS G12D) cells (assay: 2D cell viability assay (CellTiter-Glo)). Details: 96 h; GP2D cells, 4 days, CellTiter-Glo luminescence; read-out: G12D 2D EC50.
Format: cell-based
Protocol: Example B. 2D Cell Viability Assay
Compounds were tested in a 384-well format for their ability to inhibit the viability of GP2D (KRAS G12D) cells in 2D assays. Compounds were serially diluted (1:3) in DMSO. The LabCyte ECHO Acoustic dispenser system was used to pre-spot assay plates with 200 nL of test molecule per well. 1000 cells/well (40 μL volume per well) in RPMI medium with 10% FBS, and Penicillin-Streptomycin-Glutamine were plated in pre-spotted 384-well plates (Greiner, Catalog #781076) on the BioTEK EL406 liquid dispenser with a 5 μL dispensing cassette (BioTek 7170011). The plates were incubated at 37° C., 5% CO2 for 4 days before addition of CellTiter-Glo (CTG) reagent and measurement of luminescence signal. EC50 values were defined as the compound concentration that causes a 50% decrease in luminescence signal and were calculated using a sigmoidal dose-response model to generate curve fits.

Row | Structure (SMILES) | EC50 [pM]
1 | C#Cc1c(F)ccc2cc(O)cc(-c3c(F)c4c5c(nc(OC[C@@]67CCCN6C[C@H](F)C7)nc5c3F)N3C[C@H]5CC[C@H](N5)[C@H]3CCC4)c12 (atropisomer, axis not shown; (aR)) [Example 28-P, (R)-4-((1S,4R,15aR)-10,12-difluoro-8-(((2R,7aS)-2-fluorotetrahydro-1H-pyrrolizin-7a(5H)-yl)methoxy)-2,3,4,5,13,14,15,15a-octahydro-1H-1,4-epiminoazepino[1′,2′:1,8]azocino[2,3,4-de]quinazolin-11-yl)-5-ethynyl-6-fluoronaphthalen-2-ol] | 130
2 | C#Cc1c(F)ccc2cc(O)cc(-c3c(F)c4c5c(nc(OC[C@]6(C)CN(C)CC[C@@H]6C(F)F)nc5c3F)N3C[C@H]5CC[C@H](N5)[C@H]3CCC4)c12 (atropisomer, axis not shown; (aR)) [Example 78-P, (R)-4-((1S,4R,15aR)-8-(((3S,4S)-4-(difluoromethyl)-1,3-dimethylpiperidin-3-yl)methoxy)-10,12-difluoro-2,3,4,5,13,14,15,15a-octahydro-1H-1,4-epiminoazepino[1′,2′:1,8]azocino[2,3,4-de]quinazolin-11-yl)-5-ethynyl-6-fluoronaphthalen-2-ol] | 140
3 | C#Cc1c(F)ccc2cc(O)cc(-c3nc4c5c(nc(OC[C@@]67CCCN6C[C@H](F)C7)nc5c3F)N3C[C@H]5CC[C@@H]([C@H]3CCC4)N5Cc3oc(=O)oc3CC)c12 [Example 40, 4-ethyl-5-(((6aR,7S,10R)-2-(8-ethynyl-7-fluoro-3-hydroxynaphthalen-1-yl)-1-fluoro-13-(((2R,7aS)-2-fluorotetrahydro-1H-pyrrolizin-7a(5H)-yl)methoxy)-5,6,6a,7,8,9,10,11-octahydro-4H-3,11a,12,14,15-pentaaza-7,10-methanocyclohepta[4,5]cycloocta[1,2,3-de]naphthalen-15-yl)methyl)-1,3-dioxol-2-one] | 220
4 | C#Cc1c(F)ccc2cc(O)cc(-c3nc4c5c(nc(OC[C@@]67CCCN6C[C@H](F)C7)nc5c3F)N3C[C@H]5CC[C@@H]([C@H]3CCC4)N5Cc3oc(=O)oc3CCC)c12 [Example 41, 4-(((6aR,7S,10R)-2-(8-ethynyl-7-fluoro-3-hydroxynaphthalen-1-yl)-1-fluoro-13-(((2R,7aS)-2-fluorotetrahydro-1H-pyrrolizin-7a(5H)-yl)methoxy)-5,6,6a,7,8,9,10,11-octahydro-4H-3,11a,12,14,15-pentaaza-7,10-methanocyclohepta[4,5]cycloocta[1,2,3-de]naphthalen-15-yl)methyl)-5-propyl-1,3-dioxol-2-one] | 180
5 | C#Cc1c(F)ccc2cc(OCc3oc(=O)oc3C(C)(C)C)cc(-c3nc4c5c(nc(OC[C@@]67CCCN6C[C@H](F)C7)nc5c3F)N3C[C@H]5CC[C@H](N5)[C@@H]3[C@@H](C)C4)c12 [Example 67, 4-(tert-butyl)-5-(((5-ethynyl-6-fluoro-4-((5S,5aS,6S,9R)-1-fluoro-12-(((2R,7aS)-2-fluorotetrahydro-1H-pyrrolizin-7a(5H)-yl)methoxy)-5-methyl-4,5,5a,6,7,8,9,10-octahydro-3,10a,11,13,14-pentaaza-6,9-methanonaphtho[1,8-ab]heptalen-2-yl)naphthalen-2-yl)oxy)methyl)-1,3-dioxol-2-one] | 1300
6 | C#Cc1c(F)ccc2cc(N)cc(-c3nc4c5c(nc(OC[C@@]67CCCN6C[C@H](F)C7)nc5c3F)N3C[C@H]5CC[C@@H]([C@H]3CCC4)N5Cc3oc(=O)oc3-c3ccccc3)c12 [Example 69, 4-(((6aR,7S,10R)-2-(3-amino-8-ethynyl-7-fluoronaphthalen-1-yl)-1-fluoro-13-(((2R,7aS)-2-fluorotetrahydro-1H-pyrrolizin-7a(5H)-yl)methoxy)-5,6,6a,7,8,9,10,11-octahydro-4H-3,11a,12,14,15-pentaaza-7,10-methanocyclohepta[4,5]cycloocta[1,2,3-de]naphthalen-15-yl)methyl)-5-phenyl-1,3-dioxol-2-one] | 480
7 | C#Cc1c(F)ccc2cc(NCc3oc(=O)oc3C)cc(-c3nc4c5c(nc(OC[C@@]67CCCN6C[C@H](F)C7)nc5c3F)N3C[C@H]5CC[C@@H]([C@H]3CCC4)N5Cc3oc(=O)oc3C)c12 [Example 70, 4-(((5-ethynyl-6-fluoro-4-((6aR,7S,10R)-1-fluoro-13-(((2R,7aS)-2-fluorotetrahydro-1H-pyrrolizin-7a(5H)-yl)methoxy)-15-((5-methyl-2-oxo-1,3-dioxol-4-yl)methyl)-5,6,6a,7,8,9,10,11-octahydro-4H-3,11a,12,14,15-pentaaza-7,10-methanocyclohepta[4,5]cycloocta[1,2,3-de]naphthalen-2-yl)naphthalen-2-yl)amino)methyl)-5-methyl-1,3-dioxol-2-one] | 310
8 | C#Cc1c(F)ccc2cc(O)cc(-c3nc4c5c(nc(OC[C@@]67CCCN6C[C@H](F)C7)nc5c3F)N3C[C@H]5CC[C@@H]([C@H]3CCC4)N5Cc3oc(=O)oc3-c3ccccc3)c12 [Example 72, 4-(((6aR,7S,10R)-2-(8-ethynyl-7-fluoro-3-hydroxynaphthalen-1-yl)-1-fluoro-13-(((2R,7aS)-2-fluorotetrahydro-1H-pyrrolizin-7a(5H)-yl)methoxy)-5,6,6a,7,8,9,10,11-octahydro-4H-3,11a,12,14,15-pentaaza-7,10-methanocyclohepta[4,5]cycloocta[1,2,3-de]naphthalen-15-yl)methyl)-5-phenyl-1,3-dioxol-2-one] | 110
9 | C#Cc1c(F)ccc2cc(O)cc(-c3nc4c5c(nc(OC[C@]6(C)CN(C)CC[C@@H]6C(F)F)nc5c3F)N3C[C@H]5CC[C@@H]([C@H]3CCC4)N5Cc3oc(=O)oc3C)c12 [Example 74, 4-(((6aR,7S,10R)-13-(((3S,4S)-4-(difluoromethyl)-1,3-dimethylpiperidin-3-yl)methoxy)-2-(8-ethynyl-7-fluoro-3-hydroxynaphthalen-1-yl)-1-fluoro-5,6,6a,7,8,9,10,11-octahydro-4H-3,11a,12,14,15-pentaaza-7,10-methanocyclohepta[4,5]cycloocta[1,2,3-de]naphthalen-15-yl)methyl)-5-methyl-1,3-dioxol-2-one] | 60
10 | [2H]C([2H])([2H])N1CC[C@H](C(F)F)[C@](C)(C([2H])([2H])Oc2nc3c4c(nc(-c5cc(O)cc6ccc(F)c(C#C)c56)c(F)c4n2)CCC[C@@H]2[C@@H]4CC[C@H](CN32)N4Cc2oc(=O)oc2C)C1 [Example 75, 4-(((6aR,7S,10R)-13-(((3S,4S)-4-(difluoromethyl)-3-methyl-1-(methyl-d3)piperidin-3-yl)methoxy-d2)-2-(8-ethynyl-7-fluoro-3-hydroxynaphthalen-1-yl)-1-fluoro-5,6,6a,7,8,9,10,11-octahydro-4H-3,11a,12,14,15-pentaaza-7,10-methanocyclohepta[4,5]cycloocta[1,2,3-de]naphthalen-15-yl)methyl)-5-methyl-1,3-dioxol-2-one] | 80
11 | C#Cc1c(F)ccc2cc(N)cc(-c3nc4c5c(nc(OC[C@]6(C)CN(C)CC[C@@H]6C(F)F)nc5c3F)N3C[C@H]5CC[C@@H]([C@H]3CCC4)N5Cc3oc(=O)oc3C)c12 [Example 76, 4-(((6aR,7S,10R)-2-(3-amino-8-ethynyl-7-fluoronaphthalen-1-yl)-13-(((3S,4S)-4-(difluoromethyl)-1,3-dimethylpiperidin-3-yl)methoxy)-1-fluoro-5,6,6a,7,8,9,10,11-octahydro-4H-3,11a,12,14,15-pentaaza-7,10-methanocyclohepta[4,5]cycloocta[1,2,3-de]naphthalen-15-yl)methyl)-5-methyl-1,3-dioxol-2-one] | 890

Same assay, conditions: GP2D cells, 4 days, CellTiter-Glo luminescence; read-out: G12D 2D EC50

Row | Structure (SMILES) | EC50 [pM]
12 | C#Cc1c(F)ccc2cc(O)cc(-c3nc4c5c(nc(OCC67CCCN6C(COC(C(F)(F)F)(C(F)(F)F)C(F)(F)F)CC7)nc5c3F)N3CC5CCC(C3CC4)N5Cc3oc(=O)oc3C)c12 [Example 68, 4-(((8aR,9S,12R)-5-(8-ethynyl-7-fluoro-3-hydroxynaphthalen-1-yl)-4-fluoro-2-(((3S,7aS)-3-(((1,1,1,3,3,3-hexafluoro-2-(trifluoromethyl)propan-2-yl)oxy)methyl)tetrahydro-1H-pyrrolizin-7a(5H)-yl)methoxy)-7,8,8a,9,10,11,12,13-octahydro-1,3,6,13a,14-pentaaza-9,12-methanonaphtho[1,8-ab]heptalen-14-yl)methyl)-5-methyl-1,3-dioxol-2-one] | 650

The compounds below were run against GDP-loaded KRAS G12D (Homo sapiens, UniProt P01116, G12D) (assay: KRAS G12D (GDP) biochemical assay, TR-FRET probe displacement). Details: 0.5 nM enzyme, 30 min pre-incubation, 2 h incubation, TR-FRET ratio; read-out: G12D IC50.
Format: binding
Protocol: Example A. KRAS G12D (GDP) Biochemical Assay
Compounds were tested for binding to GDP-loaded KRAS G12D in a 384-well assay format using a TR-FRET probe displacement assay in buffer consisting of 50 mM Hepes (pH 7.4), 150 mM NaCl, 5 mM MgCl2 and 0.005% Tween-20. […] Compounds were serially diluted (1:3) in DMSO. The LabCyte ECHO Acoustic dispenser system was used to pre-spot the assay plates (384-well Non-Binding Surface plates, Corning, Catalog #3824) with 50 nL of compound. The compounds were pre-incubated with 5 μL of 2× final enzyme concentration for 30 minutes before adding 5 μL of 2× final concentration of Eu-streptavidin and TR-FRET probe (10 μL final reaction volume). The plates were incubated at room temperature for 2 hours before measuring TR-FRET ratio on the Envision plate reader. IC50 values were defined as the compound concentration that causes a 50% decrease in TR-FRET ratio and were calculated using a sigmoidal dose-response model to generate curve fits.

Sequence of GDP-loaded KRAS G12D (P01116 1-188 isoform P01116-2 G12D): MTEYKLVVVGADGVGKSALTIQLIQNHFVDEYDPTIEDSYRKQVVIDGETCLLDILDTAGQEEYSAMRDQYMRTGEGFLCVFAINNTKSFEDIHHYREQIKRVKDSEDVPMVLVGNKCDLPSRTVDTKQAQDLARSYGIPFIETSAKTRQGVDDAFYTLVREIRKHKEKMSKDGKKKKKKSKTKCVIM

Row | Structure (SMILES) | IC50 [pM]
13 | C#Cc1c(F)ccc2cc(O)cc(-c3c(F)c4c5c(nc(OC[C@@]67CCCN6C[C@H](F)C7)nc5c3F)N3C[C@H]5CC[C@H](N5)[C@H]3CCC4)c12 (atropisomer, axis not shown; (aR)) [Example 28-P, (R)-4-((1S,4R,15aR)-10,12-difluoro-8-(((2R,7aS)-2-fluorotetrahydro-1H-pyrrolizin-7a(5H)-yl)methoxy)-2,3,4,5,13,14,15,15a-octahydro-1H-1,4-epiminoazepino[1′,2′:1,8]azocino[2,3,4-de]quinazolin-11-yl)-5-ethynyl-6-fluoronaphthalen-2-ol] | 70
14 | C#Cc1c(F)ccc2cc(O)cc(-c3c(F)c4c5c(nc(OC[C@]6(C)CN(C)CC[C@@H]6C(F)F)nc5c3F)N3C[C@H]5CC[C@H](N5)[C@H]3CCC4)c12 (atropisomer, axis not shown; (aR)) [Example 78-P, (R)-4-((1S,4R,15aR)-8-(((3S,4S)-4-(difluoromethyl)-1,3-dimethylpiperidin-3-yl)methoxy)-10,12-difluoro-2,3,4,5,13,14,15,15a-octahydro-1H-1,4-epiminoazepino[1′,2′:1,8]azocino[2,3,4-de]quinazolin-11-yl)-5-ethynyl-6-fluoronaphthalen-2-ol] | 40
